Structures can show the parent of a compound that is named as a salt.
Legend:
[1] = target: His-tagged KRAS G12D protein (Homo sapiens (Human), UniProt P01116, G12D); experiment: KRAS G12D TR-FRET Assay; format: binding; conditions: read-out: KRAS G12D Binding IC50
Summary of the method: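 Each incubation ran at room temperature: enzyme with compound for 30 minutes, peptide for one hour, and detection reagents (0.4 nM europium anti-6×His, 5 nM streptavidin-d2) for one hour more. Protein and peptide stocks were each diluted to 20 nM before addition.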

[2] = target: GDP-bound KRAS protein (aa 1-169), containing both G12D and C118A amino acid substitutions (Homo sapiens (Human), UniProt P01116, C118A/G12D); experiment: KRAS G12D Coupled Nucleotide Exchange Assay; format: biochemical; conditions: read-out: KRAS G12D Coupled Exchange IC50
[3] = tested on: Phosphorylation of ERK1/2 in AsPC-1 cells; experiment: Phospho-ERK1/2 MSD Assay; format: cell-based, human; conditions: Homo sapiens, ASPC1, 2 h, read-out: 2 h p-ERK (AsPC-1 cells), IC50
Summary of the method: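 Read-out: MSD electrochemiluminescent detection of phosphorylated ERK1/2 in whole-cell lysates, fitted to a 4-parameter logistic curve for IC50. Prior to lysis, AsPC-1 cells (25,000 per well) received a 2 h compound dose-response at 37 °C.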

AsPC-1 cells = experiment: AsPC-1 CTG Assay (CellTiter-Glo cell viability); format: cell-based, human; conditions: Homo sapiens, ASPC1, 72 h, AsPC-1, 72 h; first value of the cell; read-out: G12D/C/V Cell Proliferation CTG (72 h) AsPC-1
Summary of the method: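 IC50 values derive from 4-parameter logistic fits of CellTiter-Glo luminescence, expressed relative to DMSO. Compound dilution series were applied to overnight-seeded AsPC-1 or SW620 cells (RPMI 1640, 10% FBS) for 72 h at 37 °C, 5% CO2.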

SW620 cells = experiment: SW620 CTG Assay (CellTiter-Glo cell viability); format: cell-based, human; conditions: Homo sapiens, SW-620; SW620, 72 h; third value of the cell; read-out: G12D/C/V Cell Proliferation CTG (72 h) SW620
Experimental: AsPC-1 and SW620 CTG Assay Protocols
AsPC-1 (human pancreatic adenocarcinoma; ATCC CRL-1682) or SW620 (human colon adenocarcinoma; ATCC CCL-227) cells were cultured in RPMI 1640 medium containing 10% fetal bovine serum and 1× penicillin/streptomycin/L-glutamine. Cells were seeded in 384-well plates at a density of 3.33E+04 cells/mL and incubated at 37° C., 5% CO2, overnight. Serially-diluted compound or DMSO was added to the cells, and plates were incubated at 37° C., 5% CO2 for 72 h. Cell viability was measured using a CellTiter-Glo® Luminescent Cell Viability Assay kit (Promega) according to the manufacturer's protocol. The luminescence signal of treated samples was normalized to DMSO control, and data were analyzed using a 4-parameter logistic model to calculate IC50 values.

MIA PaCa-2 cells = experiment: MIA PaCa-2 CTG Assay (CellTiter-Glo cell viability); format: cell-based, human; conditions: Homo sapiens; Mia PaCa-2, 72 h; second value of the cell; read-out: G12D/C/V Cell Proliferation CTG (72 h) Mia PaCa-2
Summary of the method: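 IC50 values come from a 4-parameter logistic fit of CellTiter-Glo luminescence, normalized to DMSO control, after 72 h compound exposure at 37° C, 5% CO2. Cells grew in RPMI 1640 plus 10% FBS and were seeded at 1.67E+04 cells/mL one night before dosing.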

Chain of His-tagged KRAS G12D protein (P01116 other isoform, or with tags, fused parts or gaps G12D): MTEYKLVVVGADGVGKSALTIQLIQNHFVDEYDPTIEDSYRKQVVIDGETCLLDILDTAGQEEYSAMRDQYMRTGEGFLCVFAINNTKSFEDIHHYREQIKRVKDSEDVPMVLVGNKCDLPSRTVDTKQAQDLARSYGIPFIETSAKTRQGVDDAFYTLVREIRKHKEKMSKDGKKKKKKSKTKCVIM
Chain of GDP-bound KRAS protein (aa 1-169), containing both G12D and C118A amino acid substitutions (P01116 other isoform, or with tags, fused parts or gaps G12D/C118A): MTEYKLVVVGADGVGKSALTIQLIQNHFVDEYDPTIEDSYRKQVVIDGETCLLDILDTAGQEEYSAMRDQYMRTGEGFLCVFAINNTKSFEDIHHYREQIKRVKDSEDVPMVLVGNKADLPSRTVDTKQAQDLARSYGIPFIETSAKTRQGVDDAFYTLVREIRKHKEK

Structure (SMILES)	IC50 [1]	IC50 [2]	IC50 [3]	IC50 (AsPC-1 cells)	IC50 (SW620 cells)	IC50 (MIA PaCa-2 cells)
O=C1CCCCc2c(Cl)cc3[nH]ncc3c2-c2ncc3c(nc(OC[C@@]45CCCN4C[C@H](F)C5)nc3c2F)N2CC[C@H]3CCN1[C@H]3C2 [Example 62, (28S,32R)-18-chloro-33-fluoro-4-(((2R,7aS)-2-fluorotetrahydro-1H-pyrrolo[1,2-a]pyrrol-7a(5H)-yl)methoxy)-1,3,5,9,14,15,25-heptaazaheptacyclo[23.5.2.1~6,10~.0~2,7~.0~11,19~.0~12,16~.0~28,32~]tritriaconta-2,4,6,8,10(33),11,13,16,18-nonaen-24-one]	3 nM	2 nM	4 nM	70 nM	10 nM	
CN(C)CC1(COc2nc3c4cnc(c(F)c4n2)-c2c(c(Cl)cc4[nH]ncc24)CCOC(=O)O[C@H]2C[C@]4(CCCN3C4)C2)CC1 [Example 334, (1S,3R)-10-chloro-24-((1-((dimethylamino)methyl)cyclopropyl)methoxy)-32-fluoro-4,6-dioxa-13,14,19,23,25,27-hexaazaheptacyclo[25.3.1.1~1,3~.1~18,22~.0~9,17~.0~12,16~.0~21,26~]tritriaconta-9,11,14,16,18(32),19,21,23,25-nonaen-5-one]		1 nM	8 nM	117 nM	31 nM	
CN1C(=O)CCCCc2c(Cl)cc3[nH]ncc3c2-c2ncc3c(nc(OC[C@@]45CCCN4C[C@H](F)C5)nc3c2F)N2CCC[C@@H]1C2 [Example 53, (17R)-9-chloro-30-fluoro-24-(((2R,7aS)-2-fluorotetrahydro-1H-pyrrolo[1,2-a]pyrrol-7a(5H)-yl)methoxy)-16-methyl-5,6,16,21,23,25,29-heptaazahexacyclo[24.3.1.1~17,21~.0~2,10~.0~3,7~.0~22,27~]hentriaconta-1(30),2,4,7,9,22,24,26,28-nonaen-15-one]	8 nM	4 nM	74 nM	480 nM	150 nM	
Cc1cc2[nH]ncc2c2c1CCCOC(=O)O[C@@H]1CCCN(C1)c1nc(OC[C@@]34CCCN3C[C@H](F)C4)nc3c(F)c-2ncc13 [Example 38, (17R)-30-Fluoro-24-(((2R,7aS)-2-fluorotetrahydro-1H-pyrrolo[1,2-a]pyrrol-7a(5H)-yl)methoxy)-9-methyl-14,16-dioxa-5,6,21,23,25,29-hexaazahexacyclo[24.3.1.1˜17,21˜.0˜2,10˜.0˜3,7˜.0˜22,27˜]hentriaconta-1(30),2,4,7,9,22,24,26,28-nonaen-15-one bis(2,2,2-trifluoroacetate)]	2 nM	2 nM	20 nM	443 nM	76 nM	
O=C1OCCCc2c(Cl)cc3[nH]ncc3c2-c2ncc3c(nc(OC[C@@]45CCCN4C[C@H](F)C5)nc3c2F)N2CCCC[C@H](C2)O1 [Example 100, (26R)-18-chloro-32-fluoro-4-(((2R,7aS)-2-fluorotetrahydro-1H-pyrrolo[1,2-a]pyrrol-7a(5H)-yl)methoxy)-23,25-dioxa-1,3,5,9,14,15-hexaazahexacyclo[24.4.1.1~6,10~.0~2,7~.0~11,19~.0~12,16~]dotriaconta-2,4,6,8,10(32),11,13,16,18-nonaen-24-one]	2 nM	1 nM	4 nM	60 nM	10 nM	
Cc1cc2[nH]ncc2c2c1CCCOC(=O)O[C@@H]1COCCN(C1)c1nc(OC[C@@]34CCCN3C[C@H](F)C4)nc3c(F)c-2c(F)cc13 [Example 102, (26S)-9,32-difluoro-4-(((2R,7aS)-2-fluorotetrahydro-1H-pyrrolo[1,2-a]pyrrol-7a(5H)-yl)methoxy)-18-methyl-23,25,28-trioxa-1,3,5,14,15-pentaazahexacyclo[24.4.1.1~6,10~.0~2,7~.0~11,19~.0~12,16~]dotriaconta-2,4,6,8,10(32),11,13,16,18-nonaen-24-one]			10 nM	90 nM	22.6 nM	
Fc1c2ncc3c(nc(OC[C@@]45CCCN4C[C@H](F)C5)nc13)N1CCC[C@H](C1)Cn1ncc(n1)/C=C\c1c(Cl)cc3[nH]ncc3c1-2 [Example 155, (11Z,18R)-9-chloro-31-fluoro-25-(((2R,7aS)-2-fluorotetrahydro-1H-pyrrolo[1,2-a]pyrrol-7a(5H)-yl)methoxy)-5,6,15,16,22,24,26,30,33-nonaazaheptacyclo[25.3.1.1~13,16~.1~18,22~.0~2,10~.0~3,7~.0~23,28~]tritriaconta-1(31),2,4,7,9,11,13(33),14,23,25,27,29-dodecaen]	6 nM	5 nM	52 nM	720 nM	302 nM	
Fc1c2ncc3c(nc(OC[C@@]45CCCN4C[C@H](F)C5)nc13)N1CCCC(C1)c1cnn(n1)C/C=C/c1c(Cl)cc3[nH]ncc3c1-2 (stereo partly drawn) [Example 149]	60 nM	34 nM	33 nM	470 nM	154 nM	
CN1CCC[C@H]1COc1nc2c3cnc(c(F)c3n1)-c1c(c(Cl)cc3[nH]ncc13)CCCOC(=O)O[C@@H]1COCCN2C1 [Example 207, (26S)-18-chloro-32-fluoro-4-(((2S)-1-methyl-2-pyrrolidinyl)methoxy)-23,25,28-trioxa-1,3,5,9,14,15-hexaazahexacyclo[24.4.1.1~6,10~.0~2,7~.0~11,19~.0~12,16~]dotriaconta-2,4,6,8,10(32),11,13,16,18-nonaen-24-one]	4 nM	2 nM	14.7 nM	196 nM	58 nM	
O=C1OCCc2c(Cl)cc3[nH]ncc3c2-c2ncc3c(nc(OC[C@@]45CCCN4C[C@H](F)C5)nc3c2F)N2CCC[C@@H](CO1)C2 [Example 221]	4 nM	1 nM	7.1 nM	209 nM	75 nM	
O=C1OCCCc2c(F)cc3[nH]ncc3c2-c2ncc3c(nc(OC[C@@]45CCCN4C[C@H](F)C5)nc3c2F)N2CCC[C@H](C2)O1 [Example 112]	5 nM	3 nM	48 nM	360 nM	137 nM	
C[C@@]12CCCN(C1)c1nc(OC[C@@]34CCCN3C[C@H](F)C4)nc3c(F)c(ncc13)-c1cc(O)cc3cccc(c13)CCCCC(=O)N2 [Example 8, (15R)-32-Fluoro-8-(((2R,7aS)-2-fluorotetrahydro-1H-pyrrolo[1,2-a]pyrrol-7a(5H)-yl)methoxy)-28-hydroxy-15-methyl-3,7,9,11,16-pentaazahexacyclo[20.7.1.1˜2,6˜.1˜11,15˜.0˜5,10˜.0˜26,30˜]dotriaconta-1(29),2(32),3,5,7,9,22,24,26(30),27-decaen-17-one (2,2,2-trifluoroacetate) salt]	8 nM	6 nM	60 nM		579 nM	
O=C1OCCCc2c(Cl)cc3[nH]ncc3c2-c2cc3nc(OC[C@@]45CCCN4C[C@H](F)C5)nc(c3cn2)N2CCOC[C@H](C2)O1 [Example 303, (26S)-18-chloro-4-(((2R,7aS)-2-fluorotetrahydro-1H-pyrrolo[1,2-a]pyrrol-7a(5H)-yl)methoxy)-23,25,28-trioxa-1,3,5,9,14,15-hexaazahexacyclo[24.4.1.1~6,10~.0~2,7~.0~11,19~.0~12,16~]dotriaconta-2,4,6,8,10(32),11,13,16,18-nonaen-24-one]	4 nM	2 nM	10 nM	155 nM		75 nM
O=C1CCCCc2c(Cl)cc3[nH]ncc3c2-c2ncc3c(nc(OC[C@@]45CCCN4C[C@H](F)C5)nc3c2F)N2CCOC[C@H](C2)O1 [Example 84, (26S)-18-chloro-32-fluoro-4-(((2R,7aS)-2-fluorotetrahydro-1H-pyrrolo[1,2-a]pyrrol-7a(5H)-yl)methoxy)-25,28-dioxa-1,3,5,9,14,15-hexaazahexacyclo[24.4.1.1~6,10~.0~2,7~.0~11,19~.0~12,16~]dotriaconta-2,4,6,8,10(32),11,13,16,18-nonaen-24-one]	2 nM	1 nM	4 nM	50 nM		20 nM
